Results published in the supplement of paper PMC12137928.
Counter-ions that a name gives are not always drawn.

System: HCT116
Conditions: 72 h
How it was run: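 HCT116 cells were seeded at 250 per well in 1536-well plates with 5 h allowed for attachment. CellTiter-Glo luminescence was normalized against vehicle (0%) and positive control (-100%) before pattern correction. The IC50 and maximal efficacy figures derive from four-parameter Hill fits.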

Compound	IC50 cell viability (ICRF193 0 nM)	IC50 cell viability (ICRF193 200 nM)
CN1[C@@H](CC(=O)c2ccccc2)CCC[C@H]1C[C@H](O)c1ccccc1 [LOBELINE HYDROCHLORIDE]	> 45.8 µM	> 45.8 µM
O=C(O)C(Cl)(Cl)Cl [Trichloroacetic acid]	> 45.8 µM	> 45.8 µM
NCCS [Cysteamine hydrochloride]	> 45.8 µM	> 45.8 µM
Oc1ccc(Cl)cc1 [4-Chlorophenol]	> 45.8 µM	> 45.8 µM
O=[N+]([O-])c1cc(I)c(O)c(I)c1 [2,6-DIIODO-4-NITROPHENOL]	> 45.8 µM	> 45.8 µM
CNC(=O)c1cnn(-c2nc(N)c3ncn([C@@H]4O[C@H](CO)[C@@H](O)[C@H]4O)c3n2)c1 [Lexiscan]	> 45.8 µM	> 45.8 µM
C#C[C@]1(O)CC[C@H]2[C@@H]3CCC4=CC(=O)CC[C@@H]4[C@H]3CC[C@@]21C [Norethindrone]	> 45.8 µM	> 45.8 µM
CN1C(CCl)Nc2cc(Cl)c(S(N)(=O)=O)cc2S1(=O)=O (configuration not stated) [Methyclothiazide]	> 45.8 µM	> 45.8 µM
CC1=C(/C=C/C(C)=C/C=C/C(C)=C/C=C/C=C(C)/C=C/C=C(C)/C=C/C2=C(C)C[C@@H](O)CC2(C)C)C(C)(C)C[C@H](O)C1 [Zeaxanthin]	> 45.8 µM	> 45.8 µM
O=c1oc2ccccc2c(O)c1Cc1c(O)c2ccccc2oc1=O [Dicumarol]	> 45.8 µM	> 45.8 µM
CC(=O)CC(c1ccccc1)c1c(O)c2ccccc2oc1=O (configuration not stated) [Warfarin sodium]	> 45.8 µM	> 45.8 µM
Cc1cc2nc3c(=O)[nH]c(=O)nc-3n(CC(O)C(O)C(O)COP(=O)(O)O)c2cc1C (configuration not stated) [RIBOFLAVIN 5-PHOSPHATE SODIUM]	> 45.8 µM	> 45.8 µM
CN[C@@H]1CCc2[nH]c3ccc(C(N)=O)cc3c2C1 [Frovatriptan succinate]	> 45.8 µM	> 45.8 µM
Cc1ccc(-c2ncc(Cl)cc2-c2ccc(S(C)(=O)=O)cc2)cn1 [Etoricoxib]	> 45.8 µM	> 45.8 µM
CCC(CC)(CNC(=O)CCCO)c1cccc(OC)c1 [Embutramide]	> 45.8 µM	> 45.8 µM
COC(=O)N[C@H](C(=O)N1CCC[C@H]1C(=O)Nc1ccc([C@@H]2CC[C@@H](c3ccc(NC(=O)[C@@H]4CCCN4C(=O)[C@@H](NC(=O)OC)C(C)C)cc3)N2c2ccc(C(C)(C)C)cc2)cc1)C(C)C [Ombitasvir]	> 45.8 µM	> 45.8 µM
Oc1ncc(N(CCCl)CCCl)c(O)n1 [Uracil mustard]	> 45.8 µM	> 45.8 µM
CC(C)(Oc1ccc(C2CC2(Cl)Cl)cc1)C(=O)O (configuration not stated) [Ciprofibrate]	> 45.8 µM	> 45.8 µM
CNCC(=O)OCc1cccnc1N(C)C(=O)OC(C)[n+]1cnn(C[C@](O)(c2cc(F)ccc2F)[C@@H](C)c2nc(-c3ccc(C#N)cc3)cs2)c1 (some centres not stated) [ISAVUCONAZONIUM SULFATE]	> 45.8 µM	> 45.8 µM
Cc1ccc(C(=O)C(=O)O)cc1C [Sodium 3, 4-dimethylphenyl-glyoxylate]	> 45.8 µM	> 45.8 µM
CN1[C@@H]2CC[C@H]1C[C@@H](OC(=O)[C@H](CO)c1ccccc1)C2 [HYOSCYAMINE]	> 45.8 µM	> 45.8 µM
Cc1ccnc(NS(=O)(=O)c2ccc(N)cc2)n1 [Sulfamerazine]	> 45.8 µM	> 45.8 µM
N=C1NC(=O)N2CC12 (configuration not stated) [IMEXON]	> 45.8 µM	> 45.8 µM
NC1=NCC2c3ccccc3Cc3ccccc3N12 (configuration not stated) [Epinastine hydrochloride]	> 45.8 µM	> 45.8 µM
COc1cc(N)cn[n+]1-c1ccccc1 [Amezinium methylsulfate]	> 45.8 µM	> 45.8 µM
Cc1nnc2n1-c1sc(CCC(=O)N3CCOCC3)cc1C(c1ccccc1Cl)=NC2 [Apafant]	> 45.8 µM	> 45.8 µM
CCN1CCC(=C2c3ccccc3CCc3ccccc32)C1C (configuration not stated) [Piroheptine Hydrochloride]	> 45.8 µM	> 45.8 µM

Results, then the compound that gave them:

IC50 cell viability (ICRF193 0 nM)	IC50 cell viability (ICRF193 200 nM)	Compound
> 45.8 µM	> 45.8 µM	CC(C)CN(C[C@@H](O)[C@H](Cc1ccccc1)NC(=O)O[C@H]1CCOC1)S(=O)(=O)c1ccc(N)cc1 [Amprenavir]
> 45.8 µM	> 45.8 µM	CCCCCCCCCCCCCCCCO [1-Hexadecanol]
> 45.8 µM	> 45.8 µM	NC(=O)NC1N=C([O][Al])NC1=O.O.O (configuration not stated) [Isalon]
> 45.8 µM	> 45.8 µM	CC(C)NC[C@@H](O)COc1ccc(CC(N)=O)cc1 [R-(+)-Atenolol]
> 45.8 µM	> 45.8 µM	CC(=O)NCCCS(=O)(=O)O [Acamprosate Calcium]
> 45.8 µM	> 45.8 µM	CCCCOCCOC(=O)c1cccnc1 [Nicoboxil]
> 45.8 µM	> 45.8 µM	CN(C)CCN(Cc1ccccc1)c1ccccn1 [Tripelennamine citrate]
> 45.8 µM	> 45.8 µM	NCCCC(N)(C(=O)O)C(F)F (configuration not stated) [Eflornithine Hydrochloride]
> 45.8 µM	> 45.8 µM	CCCCCCCCCCCCCCCCCC(=O)OCC(O)CO (racemic) [1-Stearoyl-rac-glycerol]
> 45.8 µM	> 45.8 µM	OC[C@@H](O)[C@H](O)[C@H](O)[C@@H](O)CO [D-Galactitol]
> 45.8 µM	> 45.8 µM	CC[C@H]1OC(=O)C[C@@H](O)[C@H](C)[C@@H](O[C@@H]2O[C@H](C)[C@@H](O)[C@H](N(C)C)[C@H]2O)[C@@H](CCN2C[C@H](C)C[C@H](C)C2)C[C@@H](C)C(=O)/C=C/C(C)=C/[C@@H]1CO[C@@H]1O[C@H](C)[C@@H](O)[C@@H](OC)[C@H]1OC [TILMICOSIN]
> 45.8 µM	> 45.8 µM	CCCNCC(O)COc1ccccc1C(=O)CCc1ccccc1 (configuration not stated) [Propafenone hydrochloride]
> 45.8 µM	> 45.8 µM	NCC(=O)CCC(=O)O [Aminolevulinic acid hydrochloride]
> 45.8 µM	> 45.8 µM	CCC(c1ccccc1)c1c(O)c2ccccc2oc1=O (configuration not stated) [Phenprocoumon]
> 45.8 µM	> 45.8 µM	CCCc1nc(C(C)(C)O)c(C(=O)OCc2oc(=O)oc2C)n1Cc1ccc(-c2ccccc2-c2nnn[nH]2)cc1 [Olmesartan medoxomil]
> 45.8 µM	> 45.8 µM	COC(=O)CCCCC(CCSS/C(CCO)=C(/C)N(C=O)Cc1cnc(C)nc1N)SC(C)=O (configuration not stated) [Octotiamine]
> 45.8 µM	> 45.8 µM	CCC[C@@H]1C[C@@H](C(=O)N[C@@H]([C@H]2O[C@H](SC)[C@H](O)[C@@H](O)[C@H]2O)[C@H](C)Cl)N(C)C1 [Clindamycin hydrochloride]
> 45.8 µM	> 45.8 µM	Cc1ccc(C2(O)CCN(CCCC(=O)c3ccc(F)cc3)CC2)cc1 [Moperone]
> 45.8 µM	> 45.8 µM	CCCCCCCCCCCCCCCC(=O)OC[C@@H](NC(=O)C(Cl)Cl)[C@H](O)c1ccc([N+](=O)[O-])cc1 [Chloramphenicol palmitate]
